From patent US8790719B2, “Phytocannabinoids in the treatment of cancer” (GW Pharma Limited, priority 2010, dated 2014)
Where two headings read alike, the source gives them in different places.

Experiments:
[1] = test system: LNCaP; assay: Cell vitality (MTT assay), LNCaP; type: cell-based; conditions: Homo sapiens, read-out: IC50 on cell vitality
Description: (§1) Cells were seeded in presence of FBS in 6 wells multiwell with a density of 8×10^4 cells/well (DU-145) or 1×10^5 cells/well (LNCaP). After 7 hours, cells were starved of dihydrotestosterone (DHT) for 15 hours and treated with increased concentrations of compounds for 24 or 48 hours (absence of serum was maintained during the treatments). Cell viability was assessed by MTT staining.
(§2) Phytocannabinoid BDS and their respective isolated phytocannabinoids were tested in both the hormone-insensitive (DU-145) prostate cancer cells and hormone-sensitive (LNCaP) prostate cancer cells. Three different phytocannabinoids were chosen for this experiment: CBG BDS and isolated compound, CBC BDS and isolated compound and CBD BDS and isolated compound.
(§3) The experiment was repeated in the hormone-insensitive (DU-145) prostate cancer cells and hormone-sensitive (LNCaP) prostate cancer cells that had not been starved of DHT. Here just the CBG BDS and isolated CBG are illustrated in Table 7.2 below.

[2] = test system: subcutaneously implanted U87 human glioma cells; conditions: s.c., 0.5 mg/mouse; cited from earlier work
[3] = test system: human glioma xenograft tumours; assay: Human glioma xenograft tumour volume; type: in vivo; parameters: unit not given here
Description: The phytocannabinoids were also tested with the TMZ as is detailed in Table 13.2 below.

[4] = test system: DU-145; assay: Cell vitality (MTT assay), DU-145; type: cell-based; conditions: Homo sapiens, read-out: IC50 on cell vitality
Description: as §1, §2, §3

[5] = test system: MDA-MB-231 breast cancer cell line; assay: Cell viability of breast cancer cells (Alamar blue assay); type: cell-based; conditions: Homo sapiens, 72 hours
Description: Cells were seeded in presence of FBS in 6 wells multiwell and treated with increased concentrations of compounds for 72 hours. Cell viability was assessed by Alamar blue staining.
Isolated phytocannabinoids were tested on the MDA-MB-231 breast cancer cell line in order to determine whether phytocannabinoids were effective in other types of cancer other than prostate cancer. The different isolated phytocannabinoids chosen for this experiment were: CBGA, CBDA, CBDV, CBD, THCV and THC.

[6] = test system: Glioma cells; assay: Human glioma cell vitality (MTT assay); type: cell-based; conditions: read-out: IC50 on glioma cell vitality
Description: Cells were seeded in presence of FBS in 6 wells multiwell with a density of 8×10^4 cells/well. Glioma cells were treated with increased concentrations of compounds and cell viability was assessed by MTT staining.
CBD BDS and isolated CBD, CBG and CBDV were tested.

[7] = biological target: T1, GPR55 (Homo sapiens, UniProt Q9Y2T6); assay: ERK Alphascreen assay using GPR55-HEK cells; type: cell-based
T1 construct: expressed in transfected cells; host or cells: HEK cells (GPR55-HEK)
Source text: An ERK Alphascreen assay was undertaken using GPR55-HEK cells.

[8] = test system: Aberrant crypt focus (ACF), polyps and tumours; assay: Colon carcinogenesis in the mouse induced by azoxymethane; type: in vivo; conditions: i.p. three times per week for three months; FIG. 5 c), FIG. 6 c)
Source text: Aberrant crypt focus (ACF), polyps and tumours were induced in the mouse by the carcinogenic substance azoxymethane. The phytocannabinoids were given (i.p.) to the mice three times per week for a period of three months. The COX-2 inhibitor celecoxib was used as a positive control.

[9] = test system: U87 glioma cells; assay: Viability of U87 glioma cells (MTT assay), THC, CBD, TMZ alone and combined; type: cell-based, human
[10] = test system: recurrent glioblastoma multiforme; conditions: nine patients, THC intra-tumourally; 95% confidence interval: 15-33; cited from earlier work

T1 sequence (Q9Y2T6 whole entry, species assumed): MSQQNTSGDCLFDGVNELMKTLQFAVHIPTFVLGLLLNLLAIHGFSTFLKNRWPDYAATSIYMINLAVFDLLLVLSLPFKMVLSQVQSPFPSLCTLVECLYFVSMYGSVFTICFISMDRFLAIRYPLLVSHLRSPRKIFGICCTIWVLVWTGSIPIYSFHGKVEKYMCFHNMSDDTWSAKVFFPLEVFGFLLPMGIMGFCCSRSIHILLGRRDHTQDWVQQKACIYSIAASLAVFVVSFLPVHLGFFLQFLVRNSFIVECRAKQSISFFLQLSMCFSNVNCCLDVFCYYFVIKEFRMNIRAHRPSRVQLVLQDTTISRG

Compound | IC50 ([1]; 24 h) | IC50 ([1]; 48 h) | growth of subcutaneously implanted U87 human glioma cells [2] | Tumour volume (increase from day 1) ([3]; dose level 3.7 mg/kg (each)) | Tumour volume (increase from day 1) ([3]; dose level 7.5 mg/kg (each)) | Tumour volume (increase from day 1) ([3]; dose level 15.0 mg/kg) | IC50 ([4]; DU-145, 24 h) | IC50 ([4]; DU-145, 48 h) | IC50 [5] | IC50 [6] | Effect at GPR55 [7] | numbers of tumours per animal [8] | Cell Viability (%) ([9]; cannabinoid 1 μM (each), Table 12.2) | Cell Viability (%) ([9]; dose level 0.7 μM (each)) | Cell Viability (%) ([9]; dose level 0.9 μM (each)) | Cell Viability (%) ([9]; dose level 1.2 μM (each)) | Median survival from the beginning of cannabinoid administration [10]
C=C(C)[C@@H]1CCC(C)=C[C@H]1c1c(O)cc(CCCCC)cc1O [CBD, Cannabidiol] | 5.3 µM | 5.6 µM | significantly inhibited the growth | 9.1 | 8.9 | 7.6 | 5.5 µM | 4.9 µM | 5 µM | 8.92 µM | Antagonist | significantly reduced the numbers of tumours per animal | – | – | – | – | –
CCCCCc1cc(O)c2c(c1)OC(C)(C)[C@@H]1CCC(C)=C[C@@H]21 [THC, Tetrahydrocannabinol] | – | – | – | 8.7 | 8.5 | 5.8 | – | – | > 10 µM | – | – | – | 115% | 100% | 92% | 80% | 24 weeks
